{"source": "patent US8759535B2", "about": "“Substituted fused imidazole derivatives, pharmaceutical compositions, and methods of use thereof” (High Point Pharmaceuticals, LLC, priority 2010, dated 2014)", "note": "Where a name gives a salt, the structure may show the parent alone.", "data": [{"test_system": "HMOX1", "assay": "HMOX1 Protein Assay (immunostaining of HO-1 in NHLF cells, GE InCell 1000)", "assay_type": "cell-based", "details": "Homo sapiens, fold change above DMSO treated cells, 3 μM compound (asterisk), 16 h", "procedure,_shortened": "(§1)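 NHLF cells seeded overnight in FGM-2, then exposed to compound or DMSO vehicle for 16 h, fixed, and immunostained for HO-1 with Hoechst nuclear counterstain; imaged on InCell 1000. Values are fold change over DMSO-treated cells, generally at 5 μM (0.8% DMSO), with asterisked entries at 3 μM.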", "values": [{"smiles": "CN(C)C(=O)[C@H](CCCCN)NC(=O)c1ccc2c(c1)nc(Nc1nc3ccc(C(F)(F)F)cc3s1)n2C", "note": "[Example 369, 1-Methyl-2-(6-trifluoromethyl-benzothiazol-2-ylamino)-1H-benzoimidazole-5-carboxylic acid ((S)-5-amino-1-dimethylcarbamoyl-pentyl)-amide hydrochloride]", "fold induction at 3 µM": 22.4}, {"smiles": "C[C@@H](CO)CCNC(=O)c1ccc2c(c1)nc(Nc1nc3ccc(Cl)cc3s1)n2C", "note": "[Example 224, 2-(6-Chloro-benzothiazol-2-ylamino)-1-methyl-1H-benzoimidazole-5-carboxylic acid ((R)-4-hydroxy-3-methyl-butyl)-amide]", "fold induction at 3 µM": 15.5}, {"smiles": "CN1CCN(CCCNC(=O)c2ccc3c(c2)nc(Nc2nc4ccc(OC(F)(F)F)cc4s2)n3C)CC1", "note": "[Example 355, 1-Methyl-2-(6-trifluoromethoxy-benzothiazol-2-ylamino)-1H-benzoimidazole-5-carboxylic acid [3-(4-methyl-piperazin-1-yl)-propyl]-amide]", "fold induction at 3 µM": 26}, {"smiles": "C[C@H](O)CNC(=O)c1ccc2c(c1)nc(Nc1nc3ccc(C(F)(F)F)cc3s1)n2C", "note": "[Example 206, 1-Methyl-2-(6-trifluoromethyl-benzothiazol-2-ylamino)-1H-benzoimidazole-5-carboxylic acid ((S)-2-hydroxy-propyl)-amide]", "fold induction at 3 µM": 27}, {"smiles": "Cn1c(Nc2nc3ccc(Cl)cc3s2)nc2cc(C(=O)NCCS(=O)(=O)CCO)ccc21", "note": "[Example 278, 2-(6-Chloro-benzothiazol-2-ylamino)-1-methyl-1H-benzoimidazole-5-carboxylic acid [2-(2-hydroxy-ethanesulfonyl)-ethyl]-amide]", "fold induction at 3 µM": 36.5}, {"smiles": "C[C@@H](NC(=O)c1ccc2c(c1)nc(Nc1nc3ccc(Cl)cc3s1)n2C)C(=O)N1CCN(C)CC1", "note": "[Example 469, 2-(6-Chloro-benzothiazol-2-ylamino)-1-methyl-1H-benzoimidazole-5-carboxylic acid [(R)-1-methyl-2-(4-methyl-piperazin-1-yl)-2-oxo-ethyl]-amide]", "fold induction at 3 µM": 26.1}, {"smiles": "CC(O)C(=O)N1CC[C@@H](NC(=O)c2ccc3c(c2)nc(Nc2nc4ccc(Cl)cc4s2)n3C)C1", "note": "(stereo in doubt) [Example 295, 2-(6-Chloro-benzothiazol-2-ylamino)-1-methyl-1H-benzoimidazole-5-carboxylic acid [(R)-1-((R)-2-hydroxy-propionyl)-pyrrolidin-3-yl]-amide]", "fold induction at 3 µM": 29}]}, {"test_system": "HMOX1", "assay": "HMOX1 Protein Assay (immunostaining of HO-1 in NHLF cells, GE InCell 1000)", "assay_type": "cell-based", "details": "Homo sapiens, fold change above DMSO treated cells, 5 μM compound, 16 h", "procedure,_shortened": "as §1", "values": [{"smiles": "Cn1c(Nc2nc3ccc(OC(F)(F)F)cc3s2)nc2cc(C(=O)NCCCCCO)ccc21", "note": "[Example 226, 1-Methyl-2-(6-trifluoromethoxy-benzothiazol-2-ylamino)-1H-benzoimidazole-5-carboxylic acid (5-hydroxy-pentyl)-amide]", "fold induction at 5 µM": 23.3}, {"smiles": "CCOCCNC(=O)c1ccc2c(c1)nc(Nc1nc3ccc(C(F)(F)F)cc3s1)n2C", "note": "[Example 85, 1-Methyl-2-(6-trifluoromethyl-benzothiazol-2-ylamino)-1H-benzoimidazole-5-carboxylic acid (2-ethoxy-ethyl)-amide]", "fold induction at 5 µM": 11.6}, {"smiles": "COCCn1c(Nc2nc3ccc(Cl)cc3s2)nc2cc(C(=O)NCC3CCN(CCO)CC3)ccc21", "note": "[Example 304, 2-(6-Chloro-benzothiazol-2-ylamino)-1-(2-methoxy-ethyl)-1H-benzoimidazole-5-carboxylic acid [1-(2-hydroxy-ethyl)-piperidin-4-ylmethyl]-amide]", "fold induction at 5 µM": 24.7}, {"smiles": "Cn1c(Nc2nc3ccc(C(F)(F)F)cc3s2)nc2cc(C(=O)NCCO)ccc21", "note": "[Example 27, 1-Methyl-2-(6-trifluoromethyl-benzothiazol-2-ylamino)-1H-benzoimidazole-5-carboxylic acid (2-hydroxy-ethyl)-amide]", "fold induction at 5 µM": 23.2}, {"smiles": "Cn1c(Nc2nc3ccc(Cl)cc3s2)nc2cc(C(=O)NCC(=O)N3CCC(CO)CC3)ccc21", "note": "[Example 442, 2-(6-Chloro-benzothiazol-2-ylamino)-1-methyl-1H-benzoimidazole-5-carboxylic acid [2-(4-hydroxymethyl-piperidin-1-yl)-2-oxo-ethyl]-amide]", "fold induction at 5 µM": 34.9}, {"smiles": "CN1CCC(NC(=O)c2ccc3c(c2)nc(Nc2nc4ccc(Cl)cc4s2)n3C)CC1", "note": "[Example 319, 2-(6-Chloro-benzothiazol-2-ylamino)-1-methyl-1H-benzoimidazole-5-carboxylic acid (1-methyl-piperidin-4-yl)-amide]", "fold induction at 5 µM": 23.9}, {"smiles": "Cn1c(Nc2nc3ccc(OC(F)(F)F)cc3s2)nc2cc(C(=O)NCC(=O)N3CCC(C(N)=O)CC3)ccc21", "note": "[Example 451, 1-Methyl-2-(6-trifluoromethoxy-benzothiazol-2-ylamino)-1H-benzoimidazole-5-carboxylic acid [2-(4-carbamoyl-piperidin-1-yl)-2-oxo-ethyl]-amide]", "fold induction at 5 µM": 51.3}, {"smiles": "Cn1c(Nc2nc3ccc(OC(F)(F)F)cc3s2)nc2cc(C(=O)NCCF)ccc21", "note": "[Example 9, 1-Methyl-2-(6-trifluoromethoxy-benzothiazol-2-ylamino)-1H-benzoimidazole-5-carboxylic acid (2-fluoro-ethyl)-amide]", "fold induction at 5 µM": 11.2}, {"smiles": "Cn1c(Nc2nc3ccc(Cl)cc3s2)nc2cc(C(=O)NCCN3CCC(F)(F)CC3)ccc21", "note": "[Example 335, 2-(6-Chloro-benzothiazol-2-ylamino)-1-methyl-1H-benzoimidazole-5-carboxylic acid [2-(4,4-difluoro-piperidin-1-yl)-ethyl]-amide]", "fold induction at 5 µM": 18.9}, {"smiles": "CCNC(=O)c1ccc2c(c1)nc(Nc1nc3ccc(Cl)cc3s1)n2CC", "note": "[Example 175, 2-(6-Chloro-benzothiazol-2-ylamino)-1-ethyl-1H-benzoimidazole-5-carboxylic acid ethylamide]", "fold induction at 5 µM": 28.7}, {"smiles": "Cn1c(Nc2nc3ccc(OC(F)(F)F)cc3s2)nc2cc(C(=O)O)c(F)cc21", "note": "[Example 41, 6-Fluoro-1-methyl-2-(6-trifluoromethoxy-benzothiazol-2-ylamino)-1H-benzoimidazole-5-carboxylic acid]", "fold induction at 5 µM": 33.3}, {"smiles": "Cn1c(Nc2nc3ccc(OC(F)(F)F)cc3s2)nc2cc(C(=O)NCCOCC(N)=O)ccc21", "note": "[Example 267, 1-Methyl-2-(6-trifluoromethoxy-benzothiazol-2-ylamino)-1H-benzoimidazole-5-carboxylic acid (2-carbamoylmethoxy-ethyl)-amide]", "fold induction at 5 µM": 58.8}, {"smiles": "CC(=O)NCCNC(=O)c1ccc2c(c1)nc(Nc1nc3ccc(OC(F)(F)F)cc3s1)n2C", "note": "[Example 100, 1-Methyl-2-(6-trifluoromethoxy-benzothiazol-2-ylamino)-1H-benzoimidazole-5-carboxylic acid (2-acetylamino-ethyl)-amide]", "fold induction at 5 µM": 25.9}, {"smiles": "Cn1c(Nc2nc3ccc(OC(F)(F)F)cc3s2)nc2cc(C(=O)N(CCO)CCO)ccc21", "note": "[Example 284, 1-Methyl-2-(6-trifluoromethoxy-benzothiazol-2-ylamino)-1H-benzoimidazole-5-carboxylic acid bis-(2-hydroxy-ethyl)-amide]", "fold induction at 5 µM": 47.4}, {"smiles": "CN(CCO)C(=O)CNC(=O)c1ccc2c(c1)nc(Nc1nc3ccc(Cl)cc3s1)n2C", "note": "[Example 391, 2-(6-Chloro-benzothiazol-2-ylamino)-1-methyl-1H-benzoimidazole-5-carboxylic acid {[(2-hydroxy-ethyl)-methyl-carbamoyl]-methyl}-amide]", "fold induction at 5 µM": 38.6}, {"smiles": "Cn1c(Nc2nc3ccc(Cl)cc3s2)nc2cc(C(=O)O)ccc21", "note": "[Example 29, 2-(6-Chloro-benzothiazol-2-ylamino)-1-methyl-1H-benzoimidazole-5-carboxylic acid]", "fold induction at 5 µM": 13.9}, {"smiles": "Cn1c(Nc2nc3ccc(C(F)(F)F)cc3s2)nc2cc(C(=O)NCCOCCO)ccc21", "note": "[Example 236, 1-Methyl-2-(6-trifluoromethyl-benzothiazol-2-ylamino)-1H-benzoimidazole-5-carboxylic acid [2-(2-hydroxy-ethoxy)-ethyl]-amide]", "fold induction at 5 µM": 45.7}, {"smiles": "Cn1c(Nc2nc3ccc(OC(F)(F)F)cc3s2)nc2cc(C(=O)NCC3CC3)ccc21", "note": "[Example 5, 1-Methyl-2-(6-trifluoromethoxy-benzothiazol-2-ylamino)-1H-benzoimidazole-5-carboxylic acid cyclopropylmethyl-amide]", "fold induction at 5 µM": 8.33}, {"smiles": "Cn1c(Nc2nc3ccc(OC(F)(F)F)cc3s2)nc2cc(C(=O)NCC3CCOCC3)ccc21", "note": "[Example 17, 1-Methyl-2-(6-trifluoromethoxy-benzothiazol-2-ylamino)-1H-benzoimidazole-5-carboxylic acid (tetrahydro-pyran-4-ylmethyl)-amide]", "fold induction at 5 µM": 21.4}, {"smiles": "Cn1c(Nc2nc3ccc(Cl)cc3s2)nc2cc(C(=O)NCCN3CCNC(=O)C3)ccc21", "note": "[Example 331, 2-(6-Chloro-benzothiazol-2-ylamino)-1-methyl-1H-benzoimidazole-5-carboxylic acid [2-(3-oxo-piperazin-1-yl)-ethyl]-amide]", "fold induction at 5 µM": 70.1}, {"smiles": "CCOC(C)CNC(=O)c1ccc2c(c1)nc(Nc1nc3ccc(OC(F)(F)F)cc3s1)n2C", "note": "(stereo not drawn) [Example 54, 1-Methyl-2-(6-trifluoromethoxy-benzothiazol-2-ylamino)-1H-benzoimidazole-5-carboxylic acid (2-ethoxy-propyl)-amide]", "fold induction at 5 µM": 18.5}, {"smiles": "CCn1c(Nc2nc3ccc(OC(F)(F)F)cc3s2)nc2cc(S(=O)(=O)C(F)(F)F)ccc21", "note": "[Example 199, (1-Ethyl-5-trifluoromethanesulfonyl-1H-benzoimidazol-2-yl)-(6-trifluoromethoxy-benzothiazol-2-yl)-amine]", "fold induction at 5 µM": 1.5}, {"smiles": "Cn1c(Nc2nc3ccc(OC(F)(F)F)cc3s2)nc2cc(C(=O)NCC(=O)N3CCC(CF)CC3)ccc21", "note": "[Example 448, 1-Methyl-2-(6-trifluoromethoxy-benzothiazol-2-ylamino)-1H-benzoimidazole-5-carboxylic acid [2-(4-fluoromethyl-piperidin-1-yl)-2-oxo-ethyl]-amide]", "fold induction at 5 µM": 36.7}]}]}
